“And” between values parts separate entries of the source, which are not always exact repeats. Equal values may be shown once.
Experiments:
DUX4 = DUX4 expression downregulation by kinase family inhibitors (Table 1); format: cell-based; settings: at the lowest significant concentration; listed as DCC2036
myotube marker genes = assay: Nanostring panel transcript analysis, myogenic genes; format: cell-based, human; settings: 17MB026 primary myotubes, 30 nM-3 μM, 3 days
Procedure: (§1) 17MB026 primary FSHD-affected patient myoblasts (obtained from the University of Rochester FSHD Biorepository) were thawed and cultured as described in Rickard et al., 2015 in primary myoblast medium. Cells (4000 per well) were seeded to a collagen-I coated 96-well plate in 100 μL primary myoblast medium. Medium was changed every other day until cells reached 80% confluence followed by a switch to 100 μL per well primary myotube medium. […] Cells were lysed after 3 days of myotube formation using 10 μL of iScript Buffer (Biorad) per well. The resulting lysates were frozen at −30° C. After thaw, 5 μL of each lysate was combined with a custom-designed Nanostring transcript probe and capture codeset. Probes were hybridized to lysates and run cartridge was loaded and run per standard protocol. Normalization and background subtraction were performed using the nSolver 3.0 software using standard conditions DUX4 target gene and myotube marker gene expression values were normalized to a standard set of housekeeping genes. Duplicate wells of each condition were averaged.

[1] = system: 17MB026 primary FSHD-affected patient myotubes; assay: FSHD primary patient biopsy myotube immunocytochemistry, Myosin Heavy Chain and nuclei; format: cell-based, human; settings: 17MB026 primary myotubes, 2 nM-5 μM, 2.5 days
Procedure: FIG. 10 provides the workflow for assays performed with patient biopsy-derived muscle. On Day 0, patient myoblasts are passaged in a 96-well dish in primary myoblast medium (Genea BioCells). On Day 2, the medium is changed to […].
17MB026 primary FSHD-affected patient myoblasts (obtained from the University of Rochester FSHD Biorepository) were thawed and cultured as described in Rickard et al., 2015 in primary myoblast medium. Cells (6000 per well) were seeded to a collagen-I coated 96-well plate in 100 μl primary myoblast medium. Medium was changed every other day until cells reached 80% confluence followed by a switch to 100 μL per well primary myotube medium. […] Cells were fixed and analyzed after 2.5 days of myotube formation by immunocytochemistry and high-content imaging for DUX4, H3.X/Y, Myosin Heavy Chain expression and nuclei number. Five or six replicate wells were averaged per condition, […]

SRC = assay: Immunofluorescence of nuclear phosphorylated SRC^416 in primary myocytes; format: cell-based, human; settings: 100 nM or 500 nM, 1 hour
Procedure: (§2) Patient biopsy-derived primary myoblasts were seeded to a collagen-I coated plate in primary myoblast medium. Medium was changed every other day until cells reached 80% confluence followed by a switch to primary myotube medium. […] PRKDC (phosphorylated PRKDC^2609), active SRC (phosphorylated SRC^416), and nuclei.

DUX4 target genes = assay: Nanostring panel transcript analysis, DUX4 target genes; format: cell-based, human; settings: 17MB026 primary myotubes, six-point dose curve 30 nM-3 μM, 3 days
Procedure: as §1

[2] = system: 17MB026 primary FSHD-affected patient myotubes; assay: Live cell imaging of % cell confluence through myotube formation; format: cell-based, human; settings: 17MB026 primary myotubes, six concentrations, four days of myotube formation
Procedure: (§3) 17MB026 primary FSHD-affected patient myoblasts (obtained from the University of Rochester FSHD Biorepository) were thawed and cultured as described in Rickard et al., 2015 in primary myoblast medium. Cells (4000 per well) were seeded to a collagen-I coated 96-well plate in 100 μL primary myoblast medium. Medium was changed every other day until cells reached 80% confluence followed by a switch to 100 μL per well primary myotube medium. […] Cells were imaged in the phase contrast channel every six hours for four days and cell confluence in each image was quantified, Triplicate wells of each condition were averaged.

PRKDC = assay: Immunofluorescence of nuclear phosphorylated PRKDC^2609 in primary myocytes; format: cell-based, human; settings: 100 nM or 500 nM, 1 hour
Procedure: as §2

Caspase 3/7 = assay: Live cell imaging of Caspase 3/7 cleavage dye fluorescence through myotube formation; format: cell-based, human; settings: 17MB026 primary myotubes, six concentrations 10 nM-3 μM, imaged four days
Procedure: as §3, with “80% continence” for “80% confluence”, “myotube medium containing 1:5000 diluted Caspase 3/7 Green. Apoptosis Assay Reagent (Essen Bioscience).” for “myotube medium.”, “phase and green channels” for “phase contrast channel”, “days to quantify green intensity×area per image.” for “days and cell confluence in each image was quantified,”

[3] = system: 4qA and D4Z4 regions of chromosome 4; assay: Bisulfite sequencing of DNA methylation at 4qA and D4Z4 regions in FSHD-affected myotubes; format: cell-based, human; settings: Genea049 FSHD-affected myotubes, 10 nM, 100 nM or 1 μM, myotube day 3
Procedure: Healthy (Genea015) or FSHD-affected (Genea049) MSC-derived myoblasts were cultured in Myoblast Media (Genea Biocells) while performing media changes every other day. When cells reached confluence, the medium was switched to Myottibe Medium (Genea Biocells) without any further media changes. On myotube day 3, cells were trypsinized and cell pellets were prepared for bisulfite sequencing analysis. Genomic DNA was isolated from cell pellets using QIAamp DNA Blood Mini Kit (Qiagen) and bisultite converted using the EpiTect Kit (Qiagen). The 4qA and D4Z4 regions were amplified and cloned into the pCR2.1 TOPO vector. The 4qA or D4Z4 containing plasmids were transformed into TOP10 chemically competent E. coli and selected for kanamycin resistance. Sequencing of kanamycin resistant colonies was completed by Sequegen and methylation analysis was performed using Bisulfite Sequencing DNA Methylation Analysis (BISMA) online software.
FSHD-affected. (Genea049) embryonic stem cell-derived myoblasts were cultured in Myoblast Media (Genea Biocells) while performing media changes every other day. When cells reached confluence, the medium was switched to Myotube Medium (Genea. Biocells) without any further media changes. […] On myotube day 3, myotubes were trypsinized and cell pellets were prepared for bisulfite sequencing analysis. Refer to the FIG. 1 legend for additional details.

In the case of `CNC(=O)c1cc(Oc2ccc(NC(=O)Nc3cc(C(C)(C)C)nn3-c3ccc4ncccc4c3)c(F)c2)ccn1` [GBC0905, Rebastinib], the “Quantitation % of DUX4 reduction @the lowest significant [C]” value (DUX4) is reported as 66.39% and 51.75% and 79.76% and 82.94%, the “expression of characteristic myotube genes” value (myotube marker genes) is reported as “does not decrease expression of queried characteristic myotube genes” and the “Myosin Heavy Chain and nuclei count” value [1] is reported as “without reducing Myosin Heavy Chain or nuclei count”. The “intensity distribution of nuclear phosphorylated SRC^416 (kinase activity)” value (SRC) was “significant shift towards lower intensity levels”, the “expression of DUX4-activated genes” value (DUX4 target genes) was “dose-dependent decrease of 11 DUX4-activated genes” and the “FSHD cell death measured by retained % cell confluence” value [2] was “dose-dependent rescue of FSHD cell death”. For the same molecule, the “intensity distribution of nuclear phosphorylated PRKDC^2609 (kinase activity)” value (PRKDC) was “significant shift towards lower intensity levels”, the “Caspase 3/7 activation” value (Caspase 3/7) was “dose-dependent decrease in Caspase 3/7 activation” and the “DNA methylation levels at 4qA or D4Z4 regions” value [3] was “No statistically significant effect”.

Reference: US11806343B2, “Inhibitors of DUX4 induction for regulation of muscle function” (Sonic Master Limited, priority 2017, dated 2023)
